Measured values as given in PubChem BioAssay AID330 (DTP/NCI, 2004).
Several values for one entry are separate records, joined by “and”; a condition that tells them apart may be missing. Equal values may be shown once. Toxic doses and inconclusive results are not listed. How the source made its calls: active means survival T/C of 150% or more; inactive means T/C below 125% in these data.

System: P388 leukemia ip, CD2F1 mice, survival T/C
Assay: NCI In Vivo Anticancer Drug Screen. Data for tumor model P388 Leukemia (intraperitoneal) in CD2F1 (CDF1) mice
Details: endpoint: median survival time, higher = longer survival
In short: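 Mice carrying the transplanted tumor received test compound or vehicle. Survival was recorded in each group, and the value is the treated-group measurement divided by that of the vehicle-treated control group.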

[1] = dose: 50.0 mg/kg/injection, schedule: Q01DX009 (ip), vehicle: saline with Tween-80
[2] = dose: 100.0 mg/kg/injection, schedule: Q01DX009 (ip), vehicle: saline with Tween-80
[3] = dose: 200.0 mg/kg/injection, schedule: Q01DX009 (ip), vehicle: saline with Tween-80
[4] = dose: 100.0 mg/kg/injection, schedule: Q04DX003 (ip), vehicle: saline with Tween-80
[5] = dose: 200.0 mg/kg/injection, schedule: Q04DX003 (ip), vehicle: saline with Tween-80
[6] = dose: 50.0 mg/kg/injection, schedule: Q01DX005 (ip), vehicle: saline with Tween-80
[7] = dose: 100.0 mg/kg/injection, schedule: Q01DX005 (ip), vehicle: saline with Tween-80
[8] = dose: 25.0 mg/kg/injection, schedule: Q04DX002 (ip), vehicle: saline with Tween-80
[9] = dose: 50.0 mg/kg/injection, schedule: Q04DX002 (ip), vehicle: saline with Tween-80
[10] = dose: 100.0 mg/kg/injection, schedule: Q04DX002 (ip), vehicle: saline with Tween-80
[11] = dose: 100.0 mg/kg/injection, schedule: Q04DX003 (ip), vehicle: saline
[12] = dose: 400.0 mg/kg/injection, schedule: Q01DX009 (ip), vehicle: saline with Tween-80
[13] = dose: 60.0 mg/kg/injection, schedule: Q01DX005 (ip), vehicle: saline
[14] = dose: 120.0 mg/kg/injection, schedule: Q01DX005 (ip), vehicle: saline
[15] = dose: 60.0 mg/kg/injection, schedule: Q01DX005 (ip), vehicle: Klucel (hydroxypropylcellulose) (HPC)
[16] = dose: 120.0 mg/kg/injection, schedule: Q01DX005 (ip), vehicle: Klucel (hydroxypropylcellulose) (HPC)
[17] = dose: 240.0 mg/kg/injection, schedule: Q01DX005 (ip), vehicle: Klucel (hydroxypropylcellulose) (HPC)

Measured: T/C

CC1=CC(=C2C(=O)c3ccccc3C2=O)C=CN1CCCN1CCCCC1
inactive: dose: 50.0 mg/kg/injection, schedule: Q01DX009 (ip), vehicle: saline 103 % of control and 119 % of control | dose: 100.0 mg/kg/injection, schedule: Q01DX009 (ip), vehicle: saline 101 % of control and 106 % of control | dose: 200.0 mg/kg/injection, schedule: Q01DX009 (ip), vehicle: saline 106 % of control and 123 % of control | dose: 400.0 mg/kg/injection, schedule: Q01DX009 (ip), vehicle: saline 100 % of control

C=C1C(=O)OC2CC(C)(O)C(O)CC3OC3(C)CC(OC(=O)/C(C)=C/C)C12 (centres undefined)
inactive: dose: 1.25 mg/kg/injection, schedule: Q01DX005 (ip), vehicle: Klucel (hydroxypropylcellulose) (HPC) 99 % of control | dose: 2.5 mg/kg/injection, schedule: Q01DX005 (ip), vehicle: Klucel (hydroxypropylcellulose) (HPC) 101 % of control | dose: 5.0 mg/kg/injection, schedule: Q01DX005 (ip), vehicle: Klucel (hydroxypropylcellulose) (HPC) 108 % of control | dose: 10.0 mg/kg/injection, schedule: Q01DX005 (ip), vehicle: Klucel (hydroxypropylcellulose) (HPC) 110 % of control

Cc1ccc(C2=C(Cl)C(=O)NC2=O)s1
inactive: dose: 3.13 mg/kg/injection, schedule: Q01DX001 (ip), vehicle: saline 100 % of control | dose: 6.25 mg/kg/injection, schedule: Q01DX001 (ip), vehicle: saline 99 % of control | dose: 12.5 mg/kg/injection, schedule: Q01DX001 (ip), vehicle: saline 95 % of control

COc1cc(/C=N/NP(=S)(Oc2ccc(C(C)(C)C)cc2)Oc2ccc(C(C)(C)C)cc2)cc(OC)c1O
inactive: dose: 50.0 mg/kg/injection, schedule: Q01DX009 (ip), vehicle: Klucel (hydroxypropylcellulose) (HPC) 99 % of control | dose: 100.0 mg/kg/injection, schedule: Q01DX009 (ip), vehicle: Klucel (hydroxypropylcellulose) (HPC) 99 % of control

COc1ccc(CCN2CN=C(Sc3ccc([N+](=O)[O-])cc3Cl)NC2)cc1OC
inactive: [1] 98 % of control | [2] 98 % of control | [3] 93 % of control

NC1C[S][Sn][O]C1=O (centres undefined)
inactive: [4] 111 % of control | [5] 109 % of control

CCC#CCN(CCCC)CCCC
inactive: [6] 106 % of control | [7] 103 % of control

[O-][n+]1onc2ccccc21
inactive: [8] 103 % of control | [9] 109 % of control | [10] 90 % of control

CC(C)CC(Br)C(=O)NCC(=O)O (centres undefined)
inactive: [4] 104 % of control | [5] 100 % of control | dose: 400.0 mg/kg/injection, schedule: Q04DX003 (ip), vehicle: saline with Tween-80 104 % of control

OCC1OC(n2cnc3c(NCc4ccco4)ncnc32)C(O)C1O (centres undefined)
inactive: [1] 111 % of control | [2] 93 % of control | [3] 118 % of control

Nc1ncnc2[nH]c(=O)[nH]c12
inactive: dose: 25.0 mg/kg/injection, schedule: Q04DX003 (ip), vehicle: saline 95 % of control | dose: 50.0 mg/kg/injection, schedule: Q04DX003 (ip), vehicle: saline 104 % of control | [11] 104 % of control

COC(=O)c1n[nH]c(C(C)C)c1N=NN(C)C
inactive: dose: 6.25 mg/kg/injection, schedule: Q01DX009 (ip), vehicle: saline 107 % of control and 113 % of control | dose: 12.5 mg/kg/injection, schedule: Q01DX009 (ip), vehicle: saline 116 % of control and 122 % of control

O=c1c(CCl)c(-c2ccc([N+](=O)[O-])cc2)sc2ccccc12
inactive: [10] 100 % of control | dose: 200.0 mg/kg/injection, schedule: Q04DX002 (ip), vehicle: saline with Tween-80 98 % of control | dose: 400.0 mg/kg/injection, schedule: Q04DX002 (ip), vehicle: saline with Tween-80 92 % of control

COP(=O)(O)NS(=O)(=O)c1ccccc1
inactive: dose: 100.0 mg/kg/injection, schedule: Q01DX001 (ip), vehicle: saline 101 % of control | dose: 200.0 mg/kg/injection, schedule: Q01DX001 (ip), vehicle: saline 101 % of control | dose: 400.0 mg/kg/injection, schedule: Q01DX001 (ip), vehicle: saline 102 % of control

NC=O
inactive: [2] 109 % of control | [11] 100 % of control | [3] 118 % of control | dose: 200.0 mg/kg/injection, schedule: Q04DX003 (ip), vehicle: saline 100 % of control | [12] 118 % of control | dose: 400.0 mg/kg/injection, schedule: Q04DX003 (ip), vehicle: saline 118 % of control

CCN(CC)[Si](C)(C)C
inactive: [13] 93 % of control | [14] 94 % of control

c1ccc(OCCNCCOc2ccccc2)cc1
inactive: [15] 104 % of control | [16] 98 % of control | [17] 103 % of control

CCO/C=C1/N=C(COc2ccc(Cl)cc2C)OC1=O
inactive: dose: 60.0 mg/kg/injection, schedule: Q01DX005 (ip), vehicle: saline with Tween-80 101 % of control | dose: 120.0 mg/kg/injection, schedule: Q01DX005 (ip), vehicle: saline with Tween-80 108 % of control | dose: 240.0 mg/kg/injection, schedule: Q01DX005 (ip), vehicle: saline with Tween-80 95 % of control

CCC1SCC(=O)N1c1nncs1 (centres undefined)
inactive: dose: 25.0 mg/kg/injection, schedule: Q01DX005 (ip), vehicle: saline with Tween-80 104 % of control | [6] 101 % of control and 102 % of control | [7] 102 % of control and 97 % of control | dose: 200.0 mg/kg/injection, schedule: Q01DX005 (ip), vehicle: saline with Tween-80 101 % of control

Nc1ncnc2nc(CO)[nH]c12
inactive: dose: 0.78 mg/kg/injection, schedule: Q01DX009 (ip), vehicle: saline with Tween-80 100 % of control | dose: 1.56 mg/kg/injection, schedule: Q01DX009 (ip), vehicle: saline with Tween-80 97 % of control | dose: 3.13 mg/kg/injection, schedule: Q01DX009 (ip), vehicle: saline with Tween-80 93 % of control | dose: 6.25 mg/kg/injection, schedule: Q01DX009 (ip), vehicle: saline with Tween-80 91 % of control

COC1/C=C/O[C@@]2(C)Oc3c(C)c(O)c4c(O)c(cc(O)c4c3C2=O)NC(=O)/C(C)=C\C=C\[C@H](C)C(O)[C@@H](C)[C@@H](O)[C@@H](C)[C@H](OC(C)=O)[C@@H]1C (some centres undefined)
inactive: dose: 6.25 mg/kg/injection, schedule: Q03HX024 (ip), vehicle: saline 100 % of control | dose: 12.5 mg/kg/injection, schedule: Q03HX024 (ip), vehicle: saline 110 % of control | dose: 25.0 mg/kg/injection, schedule: Q03HX024 (ip), vehicle: saline 100 % of control | dose: 50.0 mg/kg/injection, schedule: Q03HX024 (ip), vehicle: saline 100 % of control | [2] 90 % of control | dose: 100.0 mg/kg/injection, schedule: Q03HX024 (ip), vehicle: saline 100 % of control | dose: 100.0 mg/kg/injection, schedule: Q04DX003 (ip), vehicle: saline sonified 100 % of control | [3] 109 % of control | dose: 200.0 mg/kg/injection, schedule: Q04DX003 (ip), vehicle: saline sonified 100 % of control | [12] 118 % of control | dose: 400.0 mg/kg/injection, schedule: Q04DX003 (ip), vehicle: saline sonified 109 % of control

CN=C(N)N/N=C(\C)c1ccc(Cl)c(Cl)c1
inactive: [8] 100 % of control | [9] 99 % of control

N#CCCN1C(=O)C2(CCC#N)CCCCC2(O)N=C1c1ccccc1 (centres undefined)
inactive: [15] 92 % of control | [16] 94 % of control | [17] 92 % of control

CC(=O)OCCS(=O)Cc1ccccc1 (centres undefined)
inactive: [13] 92 % of control | [14] 94 % of control | dose: 240.0 mg/kg/injection, schedule: Q01DX005 (ip), vehicle: saline 100 % of control

Cc1ccc(SC(F)(F)C(F)C(F)(F)F)cc1 (centres undefined)
inactive: dose: 50.0 mg/kg/injection, schedule: Q01DX005 (ip), vehicle: saline 98 % of control | dose: 100.0 mg/kg/injection, schedule: Q01DX005 (ip), vehicle: saline 101 % of control | dose: 200.0 mg/kg/injection, schedule: Q01DX005 (ip), vehicle: saline 100 % of control
